No end group written: not given here.
Assays:
[1] = test system: VprN-mediated nuclear import; assay: Nuclear import of FL-BSA-VprN in permeabilized HeLa cells, fluorescence microscopy; assay type: cell-based; conditions: 1 mg/ml WGA, 4 mM GTP-γ-S, Table 2 (not given)
Protocol: (§1) Nuclear import of rhodamine-labeled BSA-NLS conjugates (FL-BSA-NLS) was performed as described before [Adam (1992) id ibid.; Broder (1997) id ibid.]. Amounts of FL-BSA-NLS substrate for FL-BSA SV40 large T-Ag NLS was 3-5 μg/system and for the FL-BSA-VprN 25 μg/system. Controls included: 1 mg/ml Wheat Germ Agglutinin (WGA), 4 mM of GTP-γ-S, or 1000 units/ml of Hexokinase and 10 mM Glucose. Samples were observed and photographed using confocal fluorescent microscopy.

[2] = test system: nuclear import of Vpr-GST fusion protein; assay: Nuclear import of FL-Vpr-GST in digitonin permeabilized HeLa cells; assay type: cell-based; conditions: 5-fold excess unlabeled Vpr-GST
Protocol: as §1
The Vpr-GST fusion protein eluted from the Glutathione-Agarose resin was concentrated by VivaScience concentrators (MWCO 30,000) to a final concentration of 2.5-3.0 mg/ml, dialyzed for 2-3 hours against 1×PBS at 4° C. and labeled with rhodamine-maleimide Molecular Probes) according to manufacturer's instructions. Following 2 hours of incubation at room temperature with rotation, the labeled Vpr-GST fusion protein (FL-Vpr-GST) was purified using Sephadex G-25 fine (Pharmacia). The FL-Vpr-GST was then concentrated again using VivaScience concentrators (MWCO 30,000) and stored at −20° C.

[3] = test system: interaction between anti-VprN scFv antibodies and surface-bound BSA-VprN conjugate; assay: Competition ELISA: inhibition of anti-VprN scFv binding to surface-bound BSA-VprN by soluble ligands; parameters: species or system HIV-1; conditions: for inhibition of binding of the three antibodies to VprN-BSA by soluble ligand: Ab1, Ab2, Ab3
Protocol: (§2) The various ELISA assays used in the present work were carried out as follows: MaxiSorb plates (NUNC) were covered overnight with 25-100 μg/ml of the antigen (in Carbonate Buffer 0.05M Na2CO3/0.05M NaHCOs, pH9.6) at 4° C. On the next day, the plates were washed three times with 1×PBS and blocked with 2% BSA in 1×PBS (for antibodies) or 2% Skim Milk (DIFCO) in 1×PBS (for all other molecules) for 2 hours at 37° C. The plates were then washed three times with 1×PBS, and the appropriate ligand (in blocking solution) was added and incubated for 2 hours at 37° C. The plates were then washed three times with 1×PBS and the following detecting agents were added for detecting the antigen-ligand complexes: Avidin-POD (Roche Diagnostics), for biotin labeled molecules (1 unit/ml); anti-M13 monoclonal antibody (Amersham Pharmacia, 1:5000), for the bound phages; and a mix of mouse anti-myc antibody (Sigma, 1:1000) with anti-mouse-HRP antibody (Sigma, 1:2000) for the scFv antibodies. Each detecting agent was dissolved in the appropriate blocking solution (see above). Following incubation for 1 hour at 37° C. with the detecting agent, the plates were washed three times with 1×PBS and the appropriate substrate was added, according to manufacturer instructions.

[4] = test system: binding of anti-VprN scFv antibodies to Vpr-GST; assay: Competition ELISA: inhibition of anti-VprN scFv binding to surface-bound Vpr-GST; parameters: species or system HIV-1; conditions: for inhibition of binding of all three antibodies to Vpr-GST by added ligand: Ab1, Ab2, Ab3
Protocol: as §2

[5] = test system: VprN-BSA conjugate (N-terminal domain of Vpr, amino acids 17-34); assay: ELISA binding to surface-bound BSA-VprN conjugate; parameters: species or system HIV-1; conditions: FIG. 2
Protocol: Panning of the human scFv antibody phage display library [Harrison, J. L. et al. (1996) Methods in Enzymology 267, 83-109; Nissim, A. et al. (1994) EMBO J 13, 692-698] was conducted as follows. Two immunotubes (5 ml, NUNC) were incubated in parallel, with rotation at room temperature overnight, one containing the BSA-VprN conjugate and the other one containing only BSA, both in 0.1 mg/ml carbonate buffer (0.05M Na2CO3/0.05M NaHCO3, pH9.6). Following incubation, the tube with the surface attached BSA-VprN conjugates was washed three times with 1× PBS and then incubated for two hours at 37° C. with 2% (w/v) skim milk (DIFCO) in 1×PBS (2% MPBS). After three washes with 1× PBS, the scFv phage library (4 ml in 1% MPBS) was added and the tube containing the phage particles was incubated for 30 min with, and for 1.5 hours without rotation, at room temperature. The supernatant was then removed and the tube was washed ten times first with 1×PBS containing 0.05% Tween 20 and then with 1×PBS only. For elution of bound phages, 1 ml of 0.1M triethylamine was added, incubated for 10 min at room temperature with rotation, and the triethylamine solution containing the eluted phages collected and mixed with 0.5 ml of 1M Tris-HCl, pH7.4. […]

[6] = test system: Tat-ARM mediated nuclear import; assay: Nuclear import of FL-BSA-Tat conjugates in HeLa cells; assay type: cell-based; conditions: WGA 1 mg/ml, peptide/FL-BSA-Tat 20/1
[7] = target: anti-VprN scFv antibody Ab1; assay: competition ELISA: free VprN peptide against Ab1 binding to coated BSA-VprN
BSA-SV40 NLS conjugate = target: T1, BSA-SV40 NLS conjugate (SV40, rhodamine- or biotin-labelled in the nuclear import assays; cysteine added at the C-terminus; peptide chemically conjugated to BSA); assay: peptide ELISA on coated BSA-NLS conjugates (FIG. 2A)
T1 construct: also called BSA-SV40 large T-antigen NLS; SV40 NLS-BSA conjugate
Protocol: (§3) The various ELISA assays used in the present work were carried out as follows: MaxiSorb plates (NUNC) were covered overnight with 25-100 μg/ml of the antigen (in Carbonate Buffer 0.05M Na₂CO₃/0.05M NaHCOs, pH9.6) at 4° C. On the next day, the plates were washed three times with 1×PBS and blocked with 2% BSA in 1×PBS (for antibodies) or 2% Skim Milk (DIFCO) in 1×PBS (for all other molecules) for 2 hours at 37° C. The plates were then washed three times with 1×PBS, and the appropriate ligand (in blocking solution) was added and incubated for 2 hours at 37° C. The plates were then washed three times with 1×PBS and the following detecting agents were added for detecting the antigen-ligand complexes: Avidin-POD (Roche Diagnostics), for biotin labeled molecules (1 unit/ml); anti-M13 monoclonal antibody (Amersham Pharmacia, 1:5000), for the bound phages; and a mix of mouse anti-myc antibody (Sigma, 1:1000) with anti-mouse-HRP antibody (Sigma, 1:2000) for the scFv antibodies. Each detecting agent was dissolved in the appropriate blocking solution (see above). Following incubation for 1 hour at 37° C. with the detecting agent, the plates were washed three times with 1×PBS and the appropriate substrate was added, according to manufacturer instructions.

BSA-VprN conjugate = target: T2, BSA-VprN conjugate (HIV-1, rhodamine- or biotin-labelled in the nuclear import assays; cysteine added at the N-terminus; peptide chemically conjugated to BSA); assay: peptide ELISA on coated BSA-NLS conjugates (FIGS. 2A and 2B)
T2 construct: The peptide is printed with superscripts 16 and 34, the text calls it residues 17-34; also called VprN-BSA conjugate; VprN-BSA
Protocol: as §3

With `Nc1nc2c(ncn2[C@@H]2O[C@H](COP(=O)(O)OP(=O)(O)OP(O)(O)=S)[C@@H](O)[C@H]2O)c(=O)[nH]1` [GTP-γ-S] the “inhibition of nuclear import of BSA-VprN conjugate by control agents” value [1] was “partially inhibited” and the “inhibition of nuclear import of Vpr-GST by control agents” value [2] was “partially inhibited”.

“SV40 NLS peptide: PKKKRKVC (SEQ. ID. NO.7), the SV40 large T-antigen NLS (SV40-NLS with extra C)” was tested, and the “inhibition of binding of the three antibodies to VprN-BSA by soluble ligand” value (shortened to “inhibition of binding … by soluble ligand”) [3] was “No or low inhibition”.

With VprN mutant (CNEATLELLPELKNPAVRHF) the “inhibition of binding … by soluble ligand” value [3] was “No or low inhibition” and the “inhibition of binding of all three antibodies to Vpr-GST by added ligand” value [4] was “no or little inhibition”.

In the case of “VprN-BSA: BSA molecule bearing about 3-4 covalently attached VprN peptides”, the “inhibition of binding … by soluble ligand” value [3] is reported as “inhibited”, the “concentration of soluble ligand inhibiting Ab1 binding to its antigen by 90%” value ([3]; Ab1, surface-bound VprN-BSA) is reported as “about 5 μM” and the “fold lower concentration than VprN peptide required to block antibody binding to Vpr-GST” value [4] is reported as “about ten”. The “inhibition of binding of all three antibodies to Vpr-GST by added ligand” value [4] was “strongly inhibited”.

“peptide a: synthetic peptide of the CDR3 random insert of phage A, ISSD (SEQ. ID. NO. 4) (AFMKSGKRFIH; CDR3 random insert sequence of Ab2)” was tested, and the “binding of anti-VprN peptide to VprN-BSA conjugate” value [5] was “failed to recognize”.

With wheat germ agglutinin [WGA] the “inhibition of nuclear import of BSA-VprN conjugate by control agents” value [1] was “inhibited”, the “inhibition of nuclear import of Vpr-GST by control agents” value [2] was “inhibited” and the “inhibition of nuclear import of FL-BSA Tat ARM conjugates by control agents” value [6] was “inhibited”.

B1: VprN peptide (free synthetic peptide) (peptide)
peptide: CNEWTLELLEELKNEAVRHF
modifications: cysteine added at the N-terminus
B1 was tested, and the concentration giving 90% inhibition [7] was > 15 µM.

B2: synthetic anti-VprN peptide a (CDR3 random insert of phage A) (peptide)
peptide: ISSD
modifications: not fully specified
B2: no binding (BSA-SV40 NLS conjugate); no binding (BSA-VprN conjugate).

B3: synthetic anti-VprN peptide c (CDR3 random insert of phage C) (peptide)
peptide: HFHYKGKLQTF
modifications: not fully specified
B3: no binding (BSA-SV40 NLS conjugate); no binding (BSA-VprN conjugate).

From patent US20060240028A1, “Anti-nls substances and uses thereof in nuclear import inhibition” (priority 2002, published 2006)
